Laboratory results taken from US20060069123A1, “Substituted dipiperidine CCR2 antagonists” (priority 2004, published 2006).

Molecular target: T1, CCR2 (Homo sapiens, UniProt P41597)
T1 sequence (P41597 1-360 isoform P41597-2): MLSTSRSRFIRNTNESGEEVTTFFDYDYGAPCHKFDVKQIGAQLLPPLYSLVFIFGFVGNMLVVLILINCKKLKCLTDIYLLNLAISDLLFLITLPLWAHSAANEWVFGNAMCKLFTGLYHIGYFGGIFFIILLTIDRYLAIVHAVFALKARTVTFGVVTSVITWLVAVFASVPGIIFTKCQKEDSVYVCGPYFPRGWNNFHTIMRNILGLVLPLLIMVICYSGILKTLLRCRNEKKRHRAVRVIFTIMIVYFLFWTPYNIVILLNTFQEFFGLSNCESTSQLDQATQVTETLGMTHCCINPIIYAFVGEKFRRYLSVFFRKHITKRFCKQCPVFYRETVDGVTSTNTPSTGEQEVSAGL

SMILES	IC50 [nM]
O=C(O)C(C1CCN(C(=O)/C=C/c2ccc(Cl)c(Cl)c2)CC1)N1CCC(c2ccc(Cl)cc2)CC1 (centres unmarked) [Cpd 1, [4-(4-chloro-phenyl)-piperidin-1-yl]-{1-[(2E)-3-(3,4-dichloro-phenyl)-acryloyl]-piperidin-4-yl}-acetic acid]	253
COC(=O)C(C1CCN(C(=O)/C=C/c2cc(F)cc(F)c2)CC1)N1CCC(c2ccc(OC)cc2)CC1 (centres unmarked) [Cpd 3, {1-[(2E)-3-(3,5-difluoro-phenyl)-acryloyl]-piperidin-4-yl}-[4-(4-methoxy-phenyl)-piperidin-1-yl]-acetic acid methyl ester]	3800
O=C(O)C(C1CCN(C(=O)/C=C/c2cc(F)c(F)c(F)c2)CC1)N1CCC(c2ccc(Cl)cc2)CC1 (centres unmarked) [Cpd 4, [4-(4-chloro-phenyl)-piperidin-1-yl]-{1-[(2E)-3-(3,4,5-trifluoro-phenyl)-acryloyl]-piperidin-4-yl}-acetic acid]	370
COc1ccc(C2CCN(C(C(=O)O)C3CCN(C(=O)/C=C/c4cc(F)c(F)c(F)c4)CC3)CC2)cc1 (centres unmarked) [Cpd 5, [4-(4-methoxy-phenyl)-piperidin-1-yl]-{1-[(2E)-3-(3,4,5-trifluoro-phenyl)-acryloyl]-piperidin-4-yl}-acetic acid]	840
O=C(O)C(C1CCN(C(=O)/C=C/c2cc(F)c(F)c(F)c2)CC1)N1CCC(n2ccc3ccccc32)CC1 (centres unmarked) [Cpd 10, (4-indol-1-yl-piperidin-1-yl)-{1-[(2E)-3-(3,4,5-trifluoro-phenyl)-acryloyl]-piperidin-4-yl}-acetic acid]	8600
O=C(O)C(C1CCN(C(=O)/C=C/c2cc(F)c(F)c(F)c2)CC1)N1CCC(Cc2c[nH]c3ccccc23)CC1 (centres unmarked) [Cpd 12, [4-(1H-indol-3-ylmethyl)-piperidin-1-yl]-{1-[(2E)-3-(3,4,5-trifluoro-phenyl)-acryloyl]-piperidin-4-yl}-acetic acid]	410
O=C(O)C(C1CCN(C(=S)Nc2ccccc2)CC1)N1CCC(c2c[nH]c3ccccc23)CC1 (centres unmarked) [Cpd 43, [4-(1H-indol-3-yl)-piperidin-1-yl]-(1-phenylthiocarbamoyl-piperidin-4-yl)-acetic acid]	1100
O=C(O)C(C1CCN(C(=S)Nc2cccc(Br)c2)CC1)N1CCC(c2c[nH]c3ccccc23)CC1 (centres unmarked) [Cpd 56, [1-(3-bromo-phenylthiocarbamoyl)-piperidin-4-yl]-[4-(1H-indol-3-yl)-piperidin-1-yl]-acetic acid]	60
COc1ccc(/C=C/C(=O)N2CCC(C(C(=O)O)N3CCC(c4c[nH]c5ccccc45)CC3)CC2)cc1OC (centres unmarked) [Cpd 63, {1-[(2E)-3-(3,4-dimethoxy-phenyl)-acryloyl]-piperidin-4-yl}-[4-(1H-indol-3-yl)-piperidin-1-yl]-acetic acid]	1610
O=C(O)C(C1CCN(C(=S)Nc2ccc(Cl)c(Cl)c2)CC1)N1CCC(c2c[nH]c3ccccc23)CC1 (centres unmarked) [Cpd 64, [1-(3,4-dichloro-phenylthiocarbamoyl)-piperidin-4-yl]-[4-(1H-indol-3-yl)-piperidin-1-yl]-acetic acid]	20
COc1ccc(NC(=O)N2CCC(C(C(=O)O)N3CCC(c4c[nH]c5ccccc45)CC3)CC2)cc1OC (centres unmarked) [Cpd 66, [1-(3,4-dimethoxy-phenylcarbamoyl)-piperidin-4-yl]-[4-(1H-indol-3-yl)-piperidin-1-yl]-acetic acid]	17700
COc1ccc(NC(=O)N2CCC(C(C(=O)O)N3CCC(c4c[nH]c5ccccc45)CC3)CC2)cc1Cl (centres unmarked) [Cpd 67, [1-(3-chloro-4-methoxy-phenylcarbamoyl)-piperidin-4-yl]-[4-(1H-indol-3-yl)-piperidin-1-yl]-acetic acid]	845
COC(=O)c1ccc(NC(=O)N2CCC(C(C(=O)O)N3CCC(c4c[nH]c5ccccc45)CC3)CC2)cc1 (centres unmarked) [Cpd 68, 4-[(4-{carboxy-[4-(1H-indol-3-yl)-piperidin-1-yl]-methyl}-piperidine-1-carbonyl)-amino]-benzoic acid methyl ester]	3550
COc1ccc(NC(=O)N2CCC(C(C(=O)O)N3CCC(c4c[nH]c5ccccc45)CC3)CC2)cc1 (centres unmarked) [Cpd 69, [4-(1H-indol-3-yl)-piperidin-1-yl]-[1-(4-methoxy-phenylcarbamoyl)-piperidin-4-yl]-acetic acid]	14200
Cc1ccc(NC(=S)N2CCC(C(C(=O)O)N3CCC(c4c[nH]c5ccccc45)CC3)CC2)cc1 (centres unmarked) [Cpd 78, [4-(1H-indol-3-yl)-piperidin-1-yl]-(1-p-tolylthiocarbamoyl-piperidin-4-yl)-acetic acid]	140
O=C(O)C(C1CCN(C(=O)NCc2ccc(Cl)c(Cl)c2)CC1)N1CCC(c2c[nH]c3ccccc23)CC1 (centres unmarked) [Cpd 84, [1-(3,4-dichloro-benzylcarbamoyl)-piperidin-4-yl]-[4-(1H-indol-3-yl)-piperidin-1-yl]-acetic acid]	2900
COC(=O)C(C1CCN(C(=O)/C=C/c2cc(F)c(F)c(F)c2)CC1)N1CCC(c2c[nH]c3c(OC)cccc23)CC1 (centres unmarked) [Cpd 118, [4-(7-methoxy-1H-indol-3-yl)-piperidin-1-yl]-{1-[(2E)-3-(3,4,5-trifluoro-phenyl)-acryloyl]-piperidin-4-yl}-acetic acid methyl ester]	3200
O=C(O)C(C1CCN(C(=O)Nc2cc(Cl)c(Cl)cc2Cl)CC1)N1CCC(c2c[nH]c3ccccc23)CC1 (centres unmarked) [Cpd 126, [4-(1H-indol-3-yl)-piperidin-1-yl]-[1-(2,4,5-trichloro-phenylcarbamoyl)-piperidin-4-yl]-acetic acid]	2100
CN(C)CC(C1CCN(C(=O)/C=C/c2cc(F)cc(F)c2)CC1)N1CCC(c2c[nH]c3ccccc23)CC1 (centres unmarked) [Cpd 130, (2E)-3-(3,5-difluoro-phenyl)-1-(4-{2-dimethylamino-1-[4-(1H-indol-3-yl)-piperidin-1-yl]-ethyl}-piperidin-1-yl)-propenone]	8550
COc1cccc2c(C3CCN(C(CO)C4CCN(C(=O)OC(C)(C)C)CC4)CC3)c[nH]c12 (centres unmarked) [Cpd 131, 4-{2-hydroxy-1-[4-(7-methoxy-1H-indol-3-yl)-piperidin-1-yl]-ethyl}-piperidine-1-carboxylic acid tert-butyl ester]	3900

Further lines, results first:

IC50 [nM]	SMILES
2170	O=C(O)C(C1CCN(C(=O)/C=C/c2cc(F)cc(F)c2)CC1)N1CCC(Cc2c[nH]c3ccccc23)CC1 (centres unmarked) [Cpd 11, {1-[(2E)-3-(3,5-difluoro-phenyl)-acryloyl]-piperidin-4-yl}-[4-(1H-indol-3-ylmethyl)-piperidin-1-yl]-acetic acid]
2700	O=C(O)C(C1CCN(C(=S)Nc2ccc(F)cc2F)CC1)N1CCC(c2c[nH]c3ccccc23)CC1 (centres unmarked) [Cpd 44, [1-(2,4-difluoro-phenylthiocarbamoyl)-piperidin-4-yl]-[4-(1H-indol-3-yl)-piperidin-1-yl]-acetic acid]
30	N=C(NC(=O)c1ccc(Cl)c(Cl)c1)N1CCC(C(C(=O)O)N2CCC(c3c[nH]c4ccccc34)CC2)CC1 (centres unmarked) [Cpd 50, {1-[(3,4-dichloro-benzoylamino)-imino-methyl]-piperidin-4-yl}-[4-(1H-indol-3-yl)-piperidin-1-yl]-acetic acid]
300	N=C(NC(=O)c1cc(F)cc(F)c1)N1CCC(C(C(=O)O)N2CCC(c3c[nH]c4ccccc34)CC2)CC1 (centres unmarked) [Cpd 51, {1-[(3,5-difluoro-benzoylamino)-imino-methyl]-piperidin-4-yl}-[4-(1H-indol-3-yl)-piperidin-1-yl]-acetic acid]
30	N=C(NC(=O)c1cc(F)c(F)c(F)c1)N1CCC(C(C(=O)O)N2CCC(c3c[nH]c4ccccc34)CC2)CC1 (centres unmarked) [Cpd 52, {1-[imino-(3,4,5-trifluoro-benzoylamino)-methyl]-piperidin-4-yl}-[4-(1H-indol-3-yl)-piperidin-1-yl]-acetic acid]
1400	N=C(NC(=O)c1cccc(F)c1)N1CCC(C(C(=O)O)N2CCC(c3c[nH]c4ccccc34)CC2)CC1 (centres unmarked) [Cpd 54, {1-[(3-fluoro-benzoylamino)-imino-methyl]-piperidin-4-yl}-[4-(1H-indol-3-yl)-piperidin-1-yl]-acetic acid]
115	O=C(O)C(C1CCN(C(=S)Nc2cc(F)cc(F)c2)CC1)N1CCC(c2c[nH]c3ccccc23)CC1 (centres unmarked) [Cpd 55, [1-(3,5-difluoro-phenylthiocarbamoyl)-piperidin-4-yl]-[4-(1H-indol-3-yl)-piperidin-1-yl]-acetic acid]
150	N=C(NC(=O)c1cccc(C(F)(F)F)c1)N1CCC(C(C(=O)O)N2CCC(c3c[nH]c4ccccc34)CC2)CC1 (centres unmarked) [Cpd 73, {1-[imino-(3-trifluoromethyl-benzoylamino)-methyl]-piperidin-4-yl}-[4-(1H-indol-3-yl)-piperidin-1-yl]-acetic acid]
480	O=C(O)C(C1CCN(C(=O)Nc2ccc(F)cc2)CC1)N1CCC(c2c[nH]c3ccccc23)CC1 (centres unmarked) [Cpd 90, [1-(4-fluoro-phenylcarbamoyl)-piperidin-4-yl]-[4-(1H-indol-3-yl)-piperidin-1-yl]-acetic acid]
11200	O=C(O)C(C1CCN(C(=O)Nc2ccc(Cl)cc2Cl)CC1)N1CCC(c2c[nH]c3ccccc23)CC1 (centres unmarked) [Cpd 111, [1-(2,4-dichloro-phenylcarbamoyl)-piperidin-4-yl]-[4-(1H-indol-3-yl)-piperidin-1-yl]-acetic acid]
1000	O=C(O)C(C1CCN(C(=O)Nc2ccc(Cl)cc2F)CC1)N1CCC(c2c[nH]c3ccccc23)CC1 (centres unmarked) [Cpd 117, [1-(4-chloro-2-fluoro-phenylcarbamoyl)-piperidin-4-yl]-[4-(1H-indol-3-yl)-piperidin-1-yl]-acetic acid]
1700	O=C(O)C(C1CCN(C(=O)Nc2ccc(F)c(F)c2F)CC1)N1CCC(c2c[nH]c3ccccc23)CC1 (centres unmarked) [Cpd 125, [4-(1H-indol-3-yl)-piperidin-1-yl]-[1-(2,3,4-trifluoro-phenylcarbamoyl)-piperidin-4-yl]-acetic acid]
